From patent US8716284B2, “Adamantyl diamide derivatives and uses of same” (H. Lundbeck A/S, priority 2008, dated 2014)

What follows are compounds tested against T1, rat metabotropic glutamate receptor 5 (mGluR5) (Rattus norvegicus, UniProt P31424) (assay: Calcium mobilization assay (FLIPR) for negative or positive allosteric activity, HEK 293 cells). Conditions: HEK293, negative allosteric modulation, inhibition of EC80 glutamate response; read-out: FLIPR maximum inhibition.
T1 construct: expressed in transfected cells; host or cells: HEK 293
T1 sequence (P31424 21-1171 isoform P31424-2 limits assumed): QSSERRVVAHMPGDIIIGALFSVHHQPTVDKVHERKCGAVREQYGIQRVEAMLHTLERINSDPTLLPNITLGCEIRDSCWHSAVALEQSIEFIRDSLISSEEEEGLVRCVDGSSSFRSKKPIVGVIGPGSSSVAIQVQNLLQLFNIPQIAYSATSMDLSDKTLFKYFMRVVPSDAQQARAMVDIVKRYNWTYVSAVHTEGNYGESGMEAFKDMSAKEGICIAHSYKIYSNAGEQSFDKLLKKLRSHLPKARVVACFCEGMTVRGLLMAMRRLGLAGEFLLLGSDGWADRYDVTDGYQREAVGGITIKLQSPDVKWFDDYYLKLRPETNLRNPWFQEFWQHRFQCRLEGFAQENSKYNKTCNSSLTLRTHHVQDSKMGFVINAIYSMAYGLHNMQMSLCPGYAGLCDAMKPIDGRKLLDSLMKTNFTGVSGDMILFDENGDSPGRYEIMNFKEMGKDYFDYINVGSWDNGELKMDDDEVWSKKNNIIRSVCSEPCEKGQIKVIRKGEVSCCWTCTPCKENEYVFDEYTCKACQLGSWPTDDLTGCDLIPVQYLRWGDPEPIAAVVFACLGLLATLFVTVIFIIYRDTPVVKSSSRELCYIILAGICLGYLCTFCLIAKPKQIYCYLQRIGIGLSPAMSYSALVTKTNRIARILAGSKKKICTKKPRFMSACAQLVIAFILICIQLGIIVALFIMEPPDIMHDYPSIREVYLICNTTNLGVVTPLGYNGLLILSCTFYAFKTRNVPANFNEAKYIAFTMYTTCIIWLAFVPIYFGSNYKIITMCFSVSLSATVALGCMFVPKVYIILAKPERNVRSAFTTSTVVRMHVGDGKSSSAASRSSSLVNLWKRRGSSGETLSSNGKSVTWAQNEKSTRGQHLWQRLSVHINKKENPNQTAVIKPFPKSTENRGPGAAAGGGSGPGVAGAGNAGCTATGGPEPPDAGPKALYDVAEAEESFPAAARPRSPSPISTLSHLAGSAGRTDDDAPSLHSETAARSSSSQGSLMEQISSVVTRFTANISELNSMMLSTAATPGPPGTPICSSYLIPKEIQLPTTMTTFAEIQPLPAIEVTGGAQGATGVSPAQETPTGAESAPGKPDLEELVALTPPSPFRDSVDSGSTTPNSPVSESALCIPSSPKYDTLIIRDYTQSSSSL
Assay type: cell-based
Outline: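 Peak Fluo-4 calcium signal over 3 min at room temperature, minus basal, fitted by Hill equation, in stable rat mGluR5 HEK 293 cells (HBSS/HEPES pH 7.4, BSA, probenecid). Inhibition scored against EC80 glutamate, potentiation against EC20 glutamate, glutamate given with compound.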
For `Cc1cccc(C(=O)NC23CC4CC(C2)CC(NC(=O)c2cn5c(C)cccc5n2)(C4)C3)n1` [Example 55, 5-Methyl-imidazo[1,2-a]pyridine-2-carboxylic acid {3-[(6-methyl-pyridine-2-carbonyl)-amino]-adamantan-1-yl}-amide], the Emax was 63 to 99%. Compound `CC(=O)NCCNc1cccc(C(=O)NC23CC4CC(CC(NC(=O)c5cccc(F)c5)(C4)C2)C3)n1` [Example 244, 6-(2-Acetylamino-ethylamino)-pyridine-2-carboxylic acid [3-(3-fluoro-benzoylamino)-adamantan-1-yl]-amide] has an Emax of 63 to 99%. Work on `Cc1cccc(C(=O)NC23CC4CC(C2)CC(NC(=O)c2cn5ccccc5n2)(C4)C3)n1` [Example 52, Imidazo[1,2-a]pyridine-2-carboxylic acid {3-[(6-methyl-pyridine-2-carbonyl)-amino]-adamantan-1-yl}-amide] yielded an Emax of 63 to 99%. In the case of `COc1cccc(C(=O)NC23CC4CC(C2)CC(NC(=O)c2ccccn2)(C4)C3)c1` [Example 80, Pyridine-2-carboxylic acid [3-(3-methoxy-benzoylamino)-adamantan-1-yl]-amide], the Emax is reported as 63 to 99%. `O=C(NC12CC3CC(C1)CC(NC(=O)c1cccc(NCCCO)n1)(C3)C2)c1cccc(F)c1` [Example 214, 6-(3-Hydroxy-propylamino)-pyridine-2-carboxylic acid [3-(3-fluoro-benzoylamino)-adamantan-1-yl]-amide] showed an Emax of 63 to 99%. `Cc1cccc(C(=O)NC23CC4CC(C2)CC(NC(=O)c2ncccc2F)(C4)C3)n1` [Example 129, 6-Methyl-pyridine-2-carboxylic acid {3-[(3-fluoro-pyridine-2-carbonyl)-amino]-adamantan-1-yl}-amide] was tested, and the Emax was 70 to 99%. Work on `Cc1cccc(C(=O)NC23CC4CC(C2)CC(NC(=O)c2cnc5ccccc5n2)(C4)C3)n1` [Example 34, Quinoxaline-2-carboxylic acid {3-[(6-methyl-pyridine-2-carbonyl)-amino]-adamantan-1-yl}-amide] yielded an Emax of 63 to 99%. `Cc1cccc(C(=O)NC23CC4CC(C2)CC(NC(=O)C2CC(F)(F)C2)(C4)C3)n1` [Example 47, 6-Methyl-pyridine-2-carboxylic acid {3-[(3,3-difluoro-cyclobutanecarbonyl)-amino]-adamantan-1-yl}-amide] was tested, and the Emax was 63 to 99%. Compound `Cc1cccc2nc(C(=O)NC34CC5CC(CC(NC(=O)c6cccc(F)c6)(C5)C3)C4)cn12` [Example 103, 5-Methyl-imidazo[1,2-a]pyridine-2-carboxylic acid [3-(3-fluoro-benzoylamino)-adamantan-1-yl]-amide] has an Emax of 63 to 99%. For `COc1cccc(C(=O)NC23CC4CC(C2)CC(NC(=O)c2cccc(C)n2)(C4)C3)c1` [Example 43, 6-Methyl-pyridine-2-carboxylic acid [3-(3-methoxy-benzoylamino)-adamantan-1-yl]-amide], the Emax was 63 to 99%. With `Cn1nc(C(=O)NC23CC4CC(CC(NC(=O)c5ccccn5)(C4)C2)C3)cc1-c1ccco1` [Example 9, Pyridine-2-carboxylic acid {3-[(5-furan-2-yl-1-methyl-1H-pyrazole-3-carbonyl)-amino]-adamantan-1-yl}-amide] the Emax was 90 to 99%. `CN(CCO)c1cccc(C(=O)NC23CC4CC(CC(NC(=O)c5cccc(F)c5)(C4)C2)C3)n1` [Example 213, 6-[(2-Hydroxy-ethyl)-methyl-amino]-pyridine-2-carboxylic acid [3-(3-fluoro-benzoylamino)-adamantan-1-yl]-amide] gave an Emax of 63 to 99%. Compound `COCCN(C)c1cccc(C(=O)NC23CC4CC(CC(NC(=O)c5ccccn5)(C4)C2)C3)n1` [Example 225, 6-[(2-Methoxy-ethyl)-methyl-amino]-pyridine-2-carboxylic acid {3-[(pyridine-2-carbonyl)-amino]-adamantan-1-yl}-amide] has an Emax of 63 to 99%. For `CC(C)(C)OC(=O)N1CCc2cc(C(=O)NC34CC5CC(C3)CC(NC(=O)c3ccccn3)(C5)C4)ccc2C1` [Example 70, 6-{3-[(Pyridine-2-carbonyl)-amino]-adamantan-1-yl-carbamoyl}-3,4-dihydro-1H-isoquinoline-2-carboxylic acid tert-butyl ester], the Emax was 63 to 99%. For `Cc1nccc(C(=O)NC23CC4CC(CC(NC(=O)c5ccc(F)cn5)(C4)C2)C3)n1` [Example 191, 2-Methyl-pyrimidine-4-carboxylic acid {3-[(5-fluoro-pyridine-2-carbonyl)-amino]-adamantan-1-yl}-amide], the Emax was 63 to 99%. With `Cc1cccc(C(=O)NC23CC4CC(C2)CC(NC(=O)c2cccc(N5CCOCC5)n2)(C4)C3)n1` [Example 22, 6-Morpholin-4-yl-pyridine-2-carboxylic acid-{3-[(6-methyl-pyridine-2-carbonyl)-amino]-adamantan-1-yl}-amide] the Emax was 63 to 99%. `Cc1ccnc(C(=O)NC23CC4CC(CC(NC(=O)c5cnccn5)(C4)C2)C3)n1` [Example 189, 4-Methyl-pyrimidine-2-carboxylic acid {3-[(pyrazine-2-carbonyl)-amino]-adamantan-1-yl}-amide] showed an Emax of 63 to 99%. `Cc1cncc(C(=O)NC23CC4CC(CC(NC(=O)c5cc(F)cc(Cl)c5)(C4)C2)C3)n1` [Example 163, 6-Methyl-pyrazine-2-carboxylic acid [3-(3-chloro-5-fluoro-benzoylamino)-adamantan-1-yl]-amide] gave an Emax of 70 to 99%. With `Cc1cccc(C(=O)NC23CC4CC(CC(NC(=O)c5ccncn5)(C4)C2)C3)n1` [Example 35, Pyrimidine-4-carboxylic acid {3-[(6-methyl-pyridine-2-carbonyl)-amino]-adamantan-1-yl}-amide] the Emax was 63 to 99%. `O=C(NC12CC3CC(C1)CC(NC(=O)c1cccc(N4CCC(O)C4)n1)(C3)C2)c1cccc(F)c1` (stereo not shown) [Example 219, 6-(3-Hydroxy-pyrrolidin-1-yl)-pyridine-2-carboxylic acid [3-(3-fluoro-benzoylamino)-adamantan-1-yl]-amide] was tested, and the Emax was 63 to 99%. `Cc1cccc(C(=O)NC23CC4CC(C2)CC(NC(=O)c2cccc(NCCCN(C)C)n2)(C4)C3)n1` [Example 236, 6-(3-Dimethylamino-propylamino)-pyridine-2-carboxylic acid {3-[(6-methyl-pyridine-2-carbonyl)-amino]-adamantan-1-yl}-amide] was tested, and the Emax was 63 to 99%. `Cc1ccc(C(=O)NC23CC4CC(C2)CC(NC(=O)c2cccc(C)n2)(C4)C3)nc1` [Example 130, 6-Methyl-pyridine-2-carboxylic acid {3-[(5-methyl-pyridine-2-carbonyl)-amino]-adamantan-1-yl}-amide] showed an Emax of 70 to 99%. `Cc1cc(C(=O)NC23CC4CC(CC(NC(=O)c5ccccn5)(C4)C2)C3)on1` [Example 78, Pyridine-2-carboxylic acid {3-[(3-methyl-isoxazole-5-carbonyl)-amino]-adamantan-1-yl}-amide] showed an Emax of 63 to 99%. `Cc1ccc2nc(C(=O)NC34CC5CC(CC(NC(=O)c6cccc(C)n6)(C5)C3)C4)cn2c1` [Example 54, 6-Methyl-imidazo[1,2-a]pyridine-2-carboxylic acid {3-[(6-methyl-pyridine-2-carbonyl)-amino]-adamantan-1-yl}-amide] gave an Emax of 63 to 99%. In the case of `O=C(NC12CC3CC(C1)CC(NC(=O)C1CCCC1)(C3)C2)c1ccccn1` [Example 85, Pyridine-2-carboxylic acid [3-(cyclopentanecarbonyl-amino)-adamantan-1-yl]-amide], the Emax is reported as 63 to 99%. `CN(CCO)c1cccc(C(=O)NC23CC4CC(CC(NC(=O)c5ccccn5)(C4)C2)C3)n1` [Example 202, 6-[(2-Hydroxy-ethyl)-methyl-amino]-pyridine-2-carboxylic acid {3-[(pyridine-2-carbonyl)-amino]-adamantan-1-yl}-amide] gave an Emax of 63 to 99%. `O=C(NC12CC3CC(C1)CC(NC(=O)c1cn4ccccc4n1)(C3)C2)c1cccc(F)c1` [Example 100, Imidazo[1,2-a]pyridine-2-carboxylic acid [3-(3-fluoro-benzoylamino)-adamantan-1-yl]-amide] gave an Emax of 63 to 99%. Work on `COCCCNc1cccc(C(=O)NC23CC4CC(CC(NC(=O)c5cccc(C)n5)(C4)C2)C3)n1` [Example 231, 6-(3-Methoxy-propylamino)-pyridine-2-carboxylic acid {3-[(6-methyl-pyridine-2-carbonyl)-amino]-adamantan-1-yl}-amide] yielded an Emax of 63 to 99%. `Cc1cccc(C(=O)NC23CC4CC(C2)CC(NC(=O)c2ccnc(C(F)(F)F)n2)(C4)C3)n1` [Example 140, 2-Trifluoromethyl-pyrimidine-4-carboxylic acid {3-[(6-methyl-pyridine-2-carbonyl)-amino]-adamantan-1-yl}-amide] was tested, and the Emax was 70 to 99%. `O=C(NC12CC3CC(C1)CC(NC(=O)c1ccc(F)cn1)(C3)C2)c1ccccn1` [Example 111, 5-Fluoro-pyridine-2-carboxylic acid {3-[(pyridine-2-carbonyl)-amino]-adamantan-1-yl}-amide] showed an Emax of 70 to 99%. `Cc1cncc(C(=O)NC23CC4CC(C2)CC(NC(=O)c2cc(Cl)ccc2F)(C4)C3)n1` [Example 161, 6-Methyl-pyrazine-2-carboxylic acid [3-(5-chloro-2-fluoro-benzoylamino)-adamantan-1-yl]-amide] was tested, and the Emax was 70 to 99%. `Cc1cccc(C(=O)NC23CC4CC(C2)CC(NC(=O)c2c5ccccc5nn2C)(C4)C3)n1` [Example 49, 2-Methyl-2H-indazole-3-carboxylic acid {3-[(6-methyl-pyridine-2-carbonyl)-amino]-adamantan-1-yl}-amide] gave an Emax of 63 to 99%. In the case of `Cc1cc(F)cc(C(=O)NC23CC4CC(C2)CC(NC(=O)c2cncc(C)n2)(C4)C3)c1` [Example 158, 6-Methyl-pyrazine-2-carboxylic acid [3-(3-fluoro-5-methyl-benzoylamino)-adamantan-1-yl]-amide], the Emax is reported as 70 to 99%. With `Cc1cccc(C(=O)NC23CC4CC(C2)CC(NC(=O)c2cccc(C(C)O)n2)(C4)C3)n1` (stereo not shown) [Example 143, 6-Methyl-pyridine-2-carboxylic acid {3-[(6-(1-hydroxy-ethyl)-pyridine-2-carbonyl)-amino]-adamantan-1-yl}-amide] the Emax was 70 to 99%.
